Test [1] concerns rat aorta rings. Put plainly: Relaxation of rat aorta rings. The note with it: rat thoracic aorta rings, phenylephrine-contracted to 80% of maximum response; cumulative addition; read-out: EC50 (concentration required to evoke a 50% relaxation of the tissue). The method, then: The activity of the compounds as potassium channel openers can also be measured as relaxation of rat aortas rings according to the following procedure:
A section of rat thoracic aorta between the aortic arch and the diaphragm was dissected out and mounted as ring preparations as described by Taylor P. D. et al, Brit J. Pharmacol, 111, 42-48 (1994).
After a 45 min. equilibration period under a tension of 2 g, the preparations were contracted to achieve 80% of the maximum response using the required concentration of phenylephrine. When the phenylephrine response reached a plateau, potential vasodilatory agents were added cumulatively to the bath in small volumes using half log molar increments at 2 min intervals. Relaxation was expressed at the percentage of the contracted tension. The potency of a compound was expressed as the concentration required to evoke a 50% relaxation of the tissue.
Relaxation of rat aorta rings

Test [2] relates to RIN 5F cell line. Put plainly: 86Rb+ efflux from a β-cell line (Rb-efflux in rin 5F cells). It counts as cell-based. The note with it: 1 h at room temperature, Ringer buffer pH 7.1, four parameter logistic curve, read-out: EC50, inhibition of Rb-efflux. On the procedure:
^86 Rb^+ efflux from a β-cell line
The RIN 5F cell line was grown in RPMI 1640 with Glutamax I, supplemented with 10% fetal calf serum (from GibcoBRL, Scotland, UK) and maintained in an atmosphere of 5% CO2 /95% air at 37° C. The cells were detached with a Trypsin-EDTA solution (from GibcoBRL, Scotland, UK), resuspended in medium, added 1 mCi/ml ^86 Rb^+ and replated into microtiter plates (96 well cluster 3596, sterile, from Costar Corporation,Massachusetts, U.S.A.) at a density of 50000 cells/well in […], and grown 24 hours before use in assay.
The plates were washed 4 times with Ringer buffer (150 mM NaCl, 10 mM Hepes, 3.0 mM KCl, 1.0 mM CaCl2, 20 mM Sucrose, pH 7.1). Eighty μl Ringer buffer and 1 μl control- or test compound dissolved in DMSO was added. After incubation 1 h at room temperature with a lid, 50 μl of the supernatant was transferred to PicoPlates (Packard Instrument Company, Connecticut, U.S.A.) and 100 μl MicroScint40 (Packard Instrument Company, Connecticut, U.S.A.) added. The plates were counted in TopCount (Packard Instrument Company, Connecticut, U.S.A.) for 1 min/well at the ^32 P program. […]

In the case of `C[C@H](CO)NC1=NS(=O)(=O)c2sc(Cl)cc2N1` [Compound 16, (R)-6-Chloro-3-(2-hydroxy-1-methylethyl)amino-4H-thieno[3,2-e]-1,2,4-thiadiazine 1,1-dioxide], the results for the EC50 in test [1] and in test [2] were 6.1 µM and 5.9 µM, respectively.

Consider `CCNC1=NS(=O)(=O)c2sc(Cl)cc2N1` [Compound 2, 6-Chloro-3-ethylamino-4H-thieno[3,2-e]-1,2,4-thiadiazine 1,1-dioxide], for which the EC50 in test [1] was 15 µM. Take `CC(C)C(C)NC1=NS(=O)(=O)c2sc(Cl)cc2N1` (centres unmarked) [Compound 1, 6-Chloro-3-(1,2-dimethylpropyl)amino-4H-thieno[3,2-e]-1,2,4-thiadiazine 1,1-dioxide]: the EC50 in test [1] came to 1.2 µM; in test [2], 2.7 µM.

Values taken from patent publication US5889002A, “Fused 1,2,4-thiadiazine and fused 1,4-thiazine derivatives, their preparation and use” (Novo Nordisk A/S, priority 1996, dated 1999).
